Test results: patent US10828289B2, “Hair follicle stem cell activation and hair growth” (THE REGENTS OF THE UNIVERSITY OF CALIFORNIA, priority 2016, dated 2020)
“Also recorded” adds a separate entry of the source.

Tests used:
Assay type in all cases: in vivo, mouse
lactate = assay: LC-MS-based metabolomics of lactate after topical treatment; details: 48 hours, vs vehicle
Source text: (§1) Mice. Animals were acquired from Jackson Labs (K15-CrePR, Lgr5-CreER and Lgr6-CreER), Rutter Lab (Mpc^fl/fl) and Seth Lab (Ldha^fl/fl) and maintained under conditions set forth by IUCUC and ARC. For experiments that include analysis of the telogen stage of the hair cycle, animals were harvested at post-natal day 50, for telogen-anagen transition animals were harvested at day 70, and for anagen animals were harvested at post-natal day 90. For experiments that include analysis of transgenic animals, K15-CrePR animals were shaved and treated by intraperitoneal injections of mifepristone and Lgr5-CreER and Lgr6-CreER animals were shaved and treated with tamoxifen (10 mg/ml dissolved in sunflower seed oil, 2 mg per day for 3 days) during telogen (post-natal day 50), and monitored for hair regrowth following shaving. For FIGS. 6A-6G, wildtype C57BL/6J animals were shaved at post-natal day 50 and treated topically with Transderma Plo Gel Ultramax Base (TR220) (vehicle) or RCGD423 (50 uM) for indicated periods of time. […]
Mass spectrometry-based metabolomics analysis. […] The samples were analyzed with an UltiMate 3000RSLC (Thermo Scientific) coupled to a Q Exactive mass spectrometer (Thermo Scientific). […] Metabolites were quantified with TraceFinder 3.3 using accurate mass measurements (<3 ppm) and retention times.

pStat1 = assay: IHC for pStat1 in topically treated skin; details: topical, shaved mice day 50, skin harvested 48 hours after treatment
Protocol: (§2) FIG. 5. Stimulation of Jak-Stat signaling and the hair cycle. RCGD423 was applied topically to shaved mice at day 50. 48 hours after treatment, the skin was harvested and prepared for IHC. […] Scale bars indicate 20 micrometers.
as §1, with “shaving.” for “shaving. For FIGS. 6A-6G, wildtype C57BL/6J animals were shaved at post-natal day 50 and treated topically with Transderma Plo Gel Ultramax Base (TR220) (vehicle) or RCGD423 (50 uM) for indicated periods of time.”
(§3) Histology, Immunostaining and Immunoblotting. […] Images were collected on an Olympus BX43 Upright Microscope and Zeiss Model Axio Imager M1 Upright Fluorescence Microscope. […]

Stat-3 = assay: Immunostaining with phospho-Stat3 antibody in HFSCs after topical treatment
Source text: as §1, with “time. Both male and female animals were used in this study in approximately equal numbers with no apparent difference in phenotype between genders.” for “time.”
as §3

Ldh [1] = assay: In situ Ldh activity staining of skin sections after topical treatment; details: epidermis and dermis
Source text: as §1, with “time. Both male and female animals were used in this study in approximately equal numbers with no apparent difference in phenotype between genders. All phenotypes described are representative of a minimum of n=3 littermate pairs as indicated in the description of each experiment.” for “time.”

Ldha = assay: Immunoblotting of total protein preps from topically treated skin: Ldha; details: 2 topical doses of 50 uM (48 hours), vs vehicle control
Source text: as §1, with “time. Both male and female animals were used in this study in approximately equal numbers with no apparent difference in phenotype between genders.” for “time.”
as §3

n-Myc = assay: Immunoblotting of total protein preps from topically treated skin: n-Myc; details: 2 topical doses of 50 uM (48 hours), vs vehicle control
Source text: as §1, with “time. Both male and female animals were used in this study in approximately equal numbers with no apparent difference in phenotype between genders.” for “time.”
as §3

hair cycle = assay: Topical treatment of shaved animals in telogen (day 50), hair cycle observation
Source text: Mice. Animals were acquired from Jackson Labs (K15-CrePR, Lgr5-CreER and Lgr6-CreER), Rutter Lab (Mpc^fl/fl) and Seth Lab (Ldha^fl/fl) and maintained under conditions set forth by IUCUC and ARC. For experiments that include analysis of the telogen stage of the hair cycle, animals were harvested at post-natal day 50, for telogen-anagen transition animals were harvested at day 70, and for anagen animals were harvested at post-natal day 90. For experiments that include analysis of transgenic animals, K15-CrePR animals were shaved and treated by intraperitoneal injections of mifepristone and Lgr5-CreER and Lgr6-CreER animals were shaved and treated with tamoxifen (10 mg/ml dissolved in sunflower seed oil, 2 mg per day for 3 days) during telogen (post-natal day 50), and monitored for hair regrowth following shaving. For FIGS. 6A-6G, wildtype C57BL/6J animals were shaved at post-natal day 50 and treated topically with Transderma Plo Gel Ultramax Base (TR220) (vehicle) or RCGD423 (50 uM) for indicated periods of time. Both male and female animals were used in this study in approximately equal numbers with no apparent difference in phenotype between genders. All phenotypes described are representative of a minimum of n=3 littermate pairs as indicated in the description of each experiment. No statistical measure was used to determine the sample size beforehand, nor were statistics used to measure effects, as the results were essentially positive or negative as represented in the figures. The results described include data from all treated animals. The investigators were not blinded to allocation during the experimental data collection, nor were the experiments randomized. The results shown were representative images from at least three independently treated animals, and genotyping was performed both before and after animal treatment for confirmation.

Ldh [2] = assay: Plate-reader Ldh activity assay on lysates from total epidermis after topical treatment; details: vs vehicle
Source text: as §1, with “shaving.” for “shaving. For FIGS. 6A-6G, wildtype C57BL/6J animals were shaved at post-natal day 50 and treated topically with Transderma Plo Gel Ultramax Base (TR220) (vehicle) or RCGD423 (50 uM) for indicated periods of time.”
Plate-reader Ldh assay. Ldh activity was determined in cell lysates by measuring the formation of soluble XTT formazan in direct relation to production of NADH over time at 475 nm at 37° C. using a Synergy-MX plate reader (Biotek Instruments). […] Protein content was determined using the BCA Protein Assay Kit (Thermo Scientific Pierce). […] Ldh activity was determined in cell lysates by measuring the change in absorbance of their common substrate or product, NADH, over time at 340 nm at 25° C. using a Synergy-MX plate reader (Biotek Instruments).

HFSCs = assay: Immunohistochemistry for Ki-67 in HFSCs after topical treatment; details: same tissue
Source text: as §1, with “time. Both male and female animals were used in this study in approximately equal numbers with no apparent difference in phenotype between genders.” for “time.”
as §3

pStat5 = assay: IHC for pStat5 in topically treated skin; details: topical, shaved mice day 50, skin harvested 48 hours after treatment
Protocol: as §2
as §1, with “shaving.” for “shaving. For FIGS. 6A-6G, wildtype C57BL/6J animals were shaved at post-natal day 50 and treated topically with Transderma Plo Gel Ultramax Base (TR220) (vehicle) or RCGD423 (50 uM) for indicated periods of time.”
as §3

c-Myc = assay: Immunoblotting of total protein preps from topically treated skin: c-Myc; details: 2 topical doses of 50 uM (48 hours), vs vehicle control
Source text: as §1, with “time. Both male and female animals were used in this study in approximately equal numbers with no apparent difference in phenotype between genders.” for “time.”
as §3

[3] = topical treatment of animals in telogen (day 50)

## Brc1ccc(Nc2nc(-c3ccccc3)cs2)cc1 [RCGD423]
lactate
  lactate level: large increase
pStat1
  effect on pStat1: does not dramatically affect
Stat-3
  Stat-3 activation (phospho-Stat3 immunostaining): activated
Ldh [1]
  Ldh activity, in situ staining: strong induction
Ldha
  Ldha protein levels: increased; also recorded: induced
n-Myc
  n-Myc protein levels: increased; also recorded: induced
Hair cycle; [3]
  hair cycle: robust acceleration of the hair cycle
  interfollicular epidermis proliferation: minor hyperproliferation of the interfollicular epidermis
Hair cycle; topical, 50 uM, after 5 doses
  observed phenotype (entry into anagen): pigmentation and hair growth, indicative of entry into anagen
Ldh [2]
  Ldh activity, in vitro measurement on lysates from total epidermis: increase in activity
HFSCs
  Ki-67 in HFSCs: induction
pStat5
  effect on pStat5: does not dramatically affect
c-Myc
  c-Myc protein levels: increased; also recorded: induced
